Measured values as given in US20080096894A1, “Anti-Bacterial Compounds” (ASTON UNIVERSITY, priority 2005, published 2008).
≈ marks a conversion by molar mass, not a printed value. Where two headings read alike, the source gives them in different places.

Tests used:
Assay in all cases: MIC, agar dilution, multipoint inoculator
[1] = system: S. aureus; format: cell-based, Staphylococcus aureus; details: upper value of MIC reading
In short: (§1)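 Each strain was spot-inoculated (10^4 CFU) onto Mueller Hinton agar plates carrying compound dilutions, using a multipoint device, and the MIC was recorded.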

[2] = system: MRSA; format: cell-based, methicillin-resistant Staphylococcus aureus; details: for MIC: upper value of MIC reading
In short: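 Agar dilution MIC on Mueller Hinton agar, multipoint inoculator delivering 10^4 colony forming units per spot. MRSA values are ranges across ten clinical MRSA strains; S. aureus NCTC 6571 as reference strain.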

[3] = system: E. faecium; format: cell-based, Enterococcus faecium; details: upper value of MIC reading
In short: as §1

[4] = system: S. epidemisis; format: cell-based, Staphylococcus epidermidis; details: upper value of MIC reading
In short: as §1

[5] = system: B. bronchiseptica; format: cell-based; details: B. bronchiseptica NCTC 8344, upper value of MIC reading
In short: as §1

[6] = system: E. faecalis; format: cell-based; details: upper value of MIC reading
In short: as §1

[7] = system: S. aboni; format: cell-based; details: S. aboni NCTC 6017; upper value of MIC reading
In short: as §1

[8] = system: S. haemolyticus; format: cell-based; details: S. haemolyticus Isolate 1, upper value of MIC reading
In short: as §1

[9] = system: S. maltophilia; format: cell-based; details: S. maltophilia NCTC 10257, upper value of MIC reading
In short: as §1

[10] = system: E. coli; format: cell-based, Escherichia coli; details: Escherichia coli, 18 h, upper value of MIC reading
Method: (§2) This activity was measured using a multipoint inoculator method as follows. The MIC for each compound was measured using an agar dilution method (Onda, H., et al., Int. J. Antimicrob. Agents. 18, 263 (2001)) (Mueller Hinton agar) by means of a multipoint inoculator delivering 10^4 colony forming units per spot.

[11] = system: K. pneumoniae; format: cell-based, Klebsiella pneumoniae; details: K. pneumoniae 327, upper value of MIC reading
Method: as §2

[12] = system: S. marcesens; format: cell-based, Serratia marcescens; details: S. marcesens 4444, upper value of MIC reading
Method: as §2

[13] = system: P. auriginosa; format: cell-based, Pseudomonas aeruginosa; details: P. auriginosa NCTC 6749, upper value of MIC reading
Method: as §2

[14] = system: E. cloacae; format: cell-based, Enterobacter cloacae; details: E. cloacae NCTC 11582, upper value of MIC reading
Method: as §2

Cc1onc(-c2c(F)cccc2Cl)c1C(=O)N[C@@H]1C(=O)N2[C@@H]1SC(C)(C)[C@@H]2C(=O)O [Fluclox., Flucloxacillin, reference compound]
MIC ([1]; Staphylococcus aureus, 18 h, S. aureus Cowan 1, read-out: MIC): 0.05 µg/mL (≈ 0.11 µM)
MIC ([1]; Staphylococcus aureus, NCTC6571, 18 h, S. aureus NCTC 6571, read-out: MIC): 0.05 µg/mL (≈ 0.11 µM)
MIC ([1]; Staphylococcus aureus, NCTC10788, 18 h, S. aureus NCTC 10788, read-out: MIC): 0.05 µg/mL (≈ 0.11 µM)
MIC ([2]; Staphylococcus aureus, 18 h, MRSA Isolate 1, read-out: MIC): 0.05 µg/mL (≈ 0.11 µM)
MIC ([2]; Staphylococcus aureus, 18 h, MRSA Isolate 2, read-out: MIC): 8 µg/mL (≈ 17.6 µM)
MIC ([2]; Staphylococcus aureus, 18 h, MRSA Isolate 3, read-out: MIC): 8 µg/mL (≈ 17.6 µM)
MIC ([2]; Staphylococcus aureus, 18 h, MRSA Isolate 4, read-out: MIC): 16 µg/mL (≈ 35.3 µM)
MIC ([2]; Staphylococcus aureus, 18 h, MRSA Isolate 5, read-out: MIC): 0.05 µg/mL (≈ 0.11 µM)
MIC ([2]; Staphylococcus aureus, 18 h, MRSA Isolate 6, read-out: MIC): 0.25 µg/mL (≈ 0.551 µM)
MIC ([2]; Staphylococcus aureus, 18 h, MRSA Isolate 7, read-out: MIC): 0.25 µg/mL (≈ 0.551 µM)
MIC ([2]; Staphylococcus aureus, 18 h, MRSA Isolate 8, read-out: MIC): 8 µg/mL (≈ 17.6 µM)
MIC ([2]; Staphylococcus aureus, 18 h, MRSA Isolate 9, read-out: MIC): 8 µg/mL (≈ 17.6 µM)
MIC ([2]; Staphylococcus aureus, 18 h, MRSA Isolate 10, read-out: MIC): 0.25 µg/mL (≈ 0.551 µM)
MIC ([3]; Enterococcus faecium, 18 h, E. faecium ACTCC 10541, read-out: MIC): 1 µg/mL (≈ 2.2 µM)
MIC ([3]; Enterococcus faecium, NCTC7171, 18 h, E. faecium NCTC 7171, read-out: MIC): 1 µg/mL (≈ 2.2 µM)
MIC ([4]; Staphylococcus epidermidis, 18 h, S. epidemisis Isolate 1, read-out: MIC): > 16 µg/mL
MIC ([4]; Staphylococcus epidermidis, NCTC11047, 18 h, S. epidemisis NCTC 11047, read-out: MIC): 0.05 µg/mL (≈ 0.11 µM)
MIC ([5]; Bordetella bronchiseptica, NCTC8344, 18 h, read-out: MIC): > 16 µg/mL
MIC ([6]; Enterococcus faecalis, 18 h, E. faecalis EBH1, read-out: MIC): 0.5 µg/mL (≈ 1.1 µM)
MIC ([6]; Enterococcus faecalis, 18 h, E. faecalis Isolate 1, read-out: MIC): 1 µg/mL (≈ 2.2 µM)
MIC ([6]; Enterococcus faecalis, 18 h, E. faecalis Isolate 2, read-out: MIC): 0.5 µg/mL (≈ 1.1 µM)
MIC ([6]; Enterococcus faecalis, 18 h, E. faecalis Isolate 4, read-out: MIC): 1 µg/mL (≈ 2.2 µM)
MIC ([6]; Enterococcus faecalis, 18 h, E. faecalis Isolate 5, read-out: MIC): 1 µg/mL (≈ 2.2 µM)
MIC ([6]; Enterococcus faecalis, NCTC5957, 18 h, E. faecalis NCTC 5957, read-out: MIC): 1 µg/mL (≈ 2.2 µM)
MIC [7]: 0.05 µg/mL (≈ 0.11 µM)
MIC ([8]; Staphylococcus haemolyticus, 18 h, read-out: MIC): 0.5 µg/mL (≈ 1.1 µM)
MIC ([9]; Stenotrophomonas maltophilia, NCTC10257, 18 h, read-out: MIC): 16 µg/mL (≈ 35.3 µM)
MIC ([10]; E. coli W3110R+): > 16 µg/mL
MIC ([10]; E. coli W3110R−): > 16 µg/mL
MIC ([11]; Klebsiella pneumoniae, 18 h, read-out: MIC): > 16 µg/mL
MIC ([12]; Serratia marcescens, 18 h, read-out: MIC): > 16 µg/mL
MIC ([13]; Pseudomonas aeruginosa, NCTC6749, 18 h, read-out: MIC): 8 µg/mL (≈ 17.6 µM)
MIC ([14]; Enterobacter cloacae, NCTC11582, 18 h, read-out: MIC): > 16 µg/mL

O=[N+]([O-])c1cc(Br)cc(C=NNc2ccccn2)c1O [HDcl]
MIC ([1]; S. aureus Cowan 1): 128 µg/mL (≈ 380 µM)
MIC ([1]; S. aureus NCTC 6571): 128 µg/mL (≈ 380 µM)
MIC ([1]; S. aureus NCTC 10788): 128 µg/mL (≈ 380 µM)
MIC ([2]; MRSA Isolate 1, in µg/mL): 128
MIC ([2]; MRSA Isolate 2, in µg/mL): 128
MIC ([2]; MRSA Isolate 3, in µg/mL): 128
MIC ([2]; MRSA Isolate 4, in µg/mL): 128
MIC ([2]; MRSA Isolate 5, in µg/mL): 128
MIC ([2]; MRSA Isolate 6, in µg/mL): 128
MIC ([2]; MRSA Isolate 7, in µg/mL): 128
MIC ([2]; MRSA Isolate 8, in µg/mL): 128
MIC ([2]; MRSA Isolate 9, in µg/mL): 128
MIC ([2]; MRSA Isolate 10, in µg/mL): 128
MRSA MIC range ([2]; panel of ten MRSA strains (clinical isolates)): 64 to 128 µg/mL
MIC ([3]; E. faecium ACTCC 10541): 128 µg/mL (≈ 380 µM)
MIC ([3]; E. faecium NCTC 7171): 128 µg/mL (≈ 380 µM)
MIC ([4]; S. epidemisis Isolate 1): 128 µg/mL (≈ 380 µM)
MIC ([4]; S. epidemisis NCTC 11047): 64 µg/mL (≈ 190 µM)
MIC [5]: 128 µg/mL (≈ 380 µM)
MIC ([6]; E. faecalis EBH1): 128 µg/mL (≈ 380 µM)
MIC ([6]; E. faecalis Isolate 1): 128 µg/mL (≈ 380 µM)
MIC ([6]; E. faecalis Isolate 2): 32 µg/mL (≈ 94.9 µM)
MIC ([6]; E. faecalis Isolate 3): 16 µg/mL (≈ 47.5 µM)
MIC ([6]; E. faecalis Isolate 4): 128 µg/mL (≈ 380 µM)
MIC ([6]; E. faecalis Isolate 5): 128 µg/mL (≈ 380 µM)
MIC ([6]; E. faecalis NCTC 5957): 128 µg/mL (≈ 380 µM)
MIC [7]: 128 µg/mL (≈ 380 µM)
MIC [8]: 128 µg/mL (≈ 380 µM)
MIC [9]: 128 µg/mL (≈ 380 µM)
MIC [11]: 128 µg/mL (≈ 380 µM)
MIC [12]: 256 µg/mL (≈ 759 µM)
MIC [13]: 128 µg/mL (≈ 380 µM)
MIC [14]: 256 µg/mL (≈ 759 µM)
